Values of other authors as cited in patent US20130317456A1, “Transdermal Delivery Systems” (Durect Corporation, priority 2006, published 2013).

Conditions: octanol/water partition coefficient

Row | SMILES | log P
1 | CCCN1CCCC[C@H]1C(=O)Nc1c(C)cccc1C [Ropivacaine] | around 2.9
2 | Cc1cccc(C)c1NC(=O)C1CCCCN1C (centres unmarked) [Mepivacaine] | around 1.95
